The source of these data is US7875653B2, “Emulsion comprising 1,2-alkanediols and polar oil components” (Beiersdorf AG, priority 2005, dated 2011).

The nature of one series: Polarity: interfacial tension towards water. It counts as physicochemical. The note with it: moderately polar lipids, between about 20 and about 30 mN/m. The source says:
Oils and fats differ from one another in their polarity, which is difficult to define. It has already been proposed to adopt the interfacial tension towards water as a measure of the polarity index of an oil or of an oil phase. The lower the interfacial tension between this oil phase and water, the greater the polarity of the oil phase in question. According to the present invention, the interfacial tension is regarded as one possible measure of the polarity of a given oil component.
The interfacial tension is the force which acts on an imaginary line one meter in length at the interface between two phases. The physical unit for this interfacial tension is conventionally calculated from the force/length relationship and is usually expressed in mN/m (millinewtons divided by meters). It has a positive sign if it tends to reduce the interface. In the converse case, it has a negative sign. For the purposes of the present invention, lipids are regarded as polar if their interfacial tension towards water is less than about 20 mN/m, and as nonpolar if their interfacial tension towards water is more than about 30 mN/m. Lipids with an interfacial tension towards water between about 20 and about 30 mN/m are generally referred to as moderately polar.
On to `CC(C)CCCCCCCOC(=O)C(C)(C)C` [DUB VCI 10, Isodecyl neopentanoate], for which the “Polarity (interfacial tension towards water)” value (“Polarity” for short) is 29.9 mN/m.
As for `CCCCC(CC)C(=O)OCCC(C)CC(C)(C)C` (stereo not shown) [Dermol 98, 2-Ethylhexanoic acid 3,5,5 trimethyl ester], the “Polarity” value amounted to 26.2 mN/m.
Take `CCCCCCCCCCC(CO)CCCCCCCC` (stereo not shown) [Eutanol G, Octyldodecanol]: the “Polarity” value was 24.8 mN/m.
As to `CCCCCCCC(=O)OCC(COC(=O)CCCCCCC)OC(=O)CCCCCCC` [Trivent OCG, Tricaprylin], the “Polarity” value is reported as 20.2 mN/m.
As for `CC(C)CCCCCCCOC(=O)CC(C)CC(C)(C)C` (stereo not shown) [Dermol 109, Isodecyl 3,5,5-trimethyl hexanoate], the “Polarity” value is given as 29.1 mN/m.
Still for that read-out and setting: next, `CCCCCCCCCCCCCC(=O)OCC(CCCCCCCC)CCCCCCCCCC` (stereo not shown) [M.O.D., Octyldodecyl myristate]: 22.1 mN/m.
Still for that read-out and setting: next, `CCCCCCCC(=O)OCCCCCCCC(C)C` [Dermol 108, Isodecyl octanoate]: 29.6 mN/m; `CCCCCCC(CCCC)C(=O)O` (stereo not shown) [Isocarb 12, Butyl octanoic acid]: 22.1 mN/m; `CCCCCCCCCC(=O)OCCCC(C)C` [Dermol IHD, Isohexyl decanoate]: 29.7 mN/m.
The same measure, in the same setting: then “Isotridecyl 3,5,5 trimethyl hexanona-noate [Dermol 139]”, with 24.5 mN/m; and `CCCCCCOCCCCCC` [Dihexyl ether], with 29.2 mN/m; and `CCCCCCCCCCCCCCCCCC(=O)OC(C)C` [Isopropyl stearate], with 21.9 mN/m.

Still in this series, the particulars now being: polar lipids, less than about 20 mN/m.
For PEG 2 Diethylene hexanoate [Dermol 488], the “Polarity” value is given as 10.1 mN/m.
On the same count and under the same terms, next, `CCCCOC(=O)CCCCC(=O)OCCCC` [Cetiol B, Dibutyl adipate]: 14.3 mN/m; `CCCCCCCCCCCCCCCCCCOC(=O)CCCCCC` [Tegosoft SH, Stearyl heptanoate]: 17.8 mN/m.
Take Triisostearin [Prisorine 2041 GTIS]: the “Polarity” value is listed as 2.4 mN/m.
